The text below walks through data of patent US9469647B2, “Salt crystals” (INTRA-CELLULAR THERAPIES, INC., priority 2012, dated 2016).

The data set in a line: Single rising dose clinical study (pharmacokinetic profile). As to conditions: plasma, human, aqueous solution, Mean (SD). Format: in vivo. The procedure:
In a single rising dose clinical study involving 55 active subjects (15 placebo) with 11 active:3 placebo for each dose level of 10, 25, 75, 150, 300 mg, the mono-phosphate salt crystals of (6aR,9aS)-5,6a,7,8,9,9a-hexahydro-5-methyl-3-(phenylamino)-2-((4-(6-fluoropyridin-2-yl)phenyl)methyl)-cyclopent[4,5]imidazo[1,2-a]pyrazolo[4,3-e]pyrimidin-4(2H)-one is dissolved in water, and this aqueous solution is orally administered. The pharmacokinetic profile is setforth below in Table 7.

The AUC(0-inf) is the area under the concentration-time curve extrapolated to infinity. A high value points to high exposure. As usually defined, the AUC(0-t) is the area under the concentration-time curve up to a stated or last time point. Read a low AUC(0-t) as low exposure. The term Cmax denotes the highest concentration seen after dosing. By Tmax is commonly meant the time from dosing to the highest level.

Molecules are shown by their SMILES. Structures can show the parent of a compound that is named as a salt.

For `CN1C(=O)c2c(nn(Cc3ccc(-c4cccc(F)n4)cc3)c2Nc2ccccc2)N2C1=N[C@@H]1CCC[C@@H]12` [Phosphate salt, (6aR,9aS)-5,6a,7,8,9,9a-hexahydro-5-methyl-3-(phenylamino)-2-((4-(6-fluoropyridin-2-yl)phenyl)methyl)-cyclopent[4,5]imidazo[1,2-a]pyrazolo[4,3-e]pyrimidin-4(2H)-one], the AUC(0-inf) turned out to be 772 ng·h/mL (single oral dose 10 mg); 1340 ng·h/mL (single oral dose 25 mg); 3050 ng·h/mL (single oral dose 75 mg); 5050 ng·h/mL (single oral dose 150 mg); 8190 ng·h/mL (single oral dose 300 mg). Moreover, the AUC(0-t) is, setting by setting: (single oral dose 10 mg) 768 ng·h/mL; (single oral dose 25 mg) 1340 ng·h/mL; (single oral dose 75 mg) 3040 ng·h/mL; (single oral dose 150 mg) 5040 ng·h/mL; (single oral dose 300 mg) 8180 ng·h/mL. In addition, the Cmax runs as follows: (single oral dose 10 mg) 89.7 ng/mL; (single oral dose 25 mg) 155 ng/mL; (single oral dose 75 mg) 334 ng/mL; (single oral dose 150 mg) 585 ng/mL; (single oral dose 300 mg) 828 ng/mL. Besides, the Tmax came out at 1 h (single oral dose 10 mg); 0.5 h (single oral dose 25 mg); 1 h (single oral dose 75 mg); 1 h (single oral dose 150 mg); 1 h (single oral dose 300 mg).
